Experiment: Stability of 4-(4-fluorobenzylamino)-1-methylpiperidine (oil) and its trihydrate stored in a sealed container, purity and impurities over time
Format: physicochemical
Details: for decrease in purity: crude oil, sealed container
Procedure: The stability of the crude 4-(4-fluorobenzylamino)-1-methylpiperidine oil obtained by the process described in Example 1 was also assessed.
The crude 4-(4-fluorobenzylamino)-1-methylpiperidine oil decreased in purity by 0.5% after 1 month and 0.7% after 2.5 months.

[1] = Batch 3, sealed container, 0 months
[2] = Batch 3, sealed container, 1 month
[3] = Batch 4, sealed container, 0 months
[4] = Batch 4, sealed container, 2.5 months

| SMILES | Amine purity [1] | impurity I (% impurity) [1] | impurity II (% impurity) [1] | impurity III (% impurity) [1] | Amine purity [2] | impurity I (% impurity) [2] | impurity II (% impurity) [2] | impurity III (% impurity) [2] | Amine purity [3] | impurity I (% impurity) [3] | impurity II (% impurity) [3] | impurity III (% impurity) [3] | Amine purity [4] | impurity I (% impurity) [4] | impurity II (% impurity) [4] | impurity III (% impurity) [4] | decrease in purity (after 1 month) [%] | decrease in purity (after 2.5 months) [%] | stability on storage (decomposition) (stored under the same conditions as the amine oil (sealed container)) |
| --- | --- | --- | --- | --- | --- | --- | --- | --- | --- | --- | --- | --- | --- | --- | --- | --- | --- | --- | --- |
| CN1CCC(NCc2ccc(F)cc2)CC1 [4-(4-fluorobenzylamino)-1-methylpiperidine] | Amine - 98.17% pure | I/(0.21) % | II/(0.12) % | III/(0.27) % | Amine - 97.66% pure | I/(0.26) % | II/(0.21) % | III/(0.59) % | Amine - 97.82% pure | I/(0.23) % | II/(0.12) % | III/(0.68) % | Amine - 97.09% pure | I/(0.18) % | II/(0.14) % | III/(1.15) % | 0.5 | 0.7 | – |
| CN1CCC(NCc2ccc(F)cc2)CC1 [4-(4-fluorobenzylamino)-1-methylpiperidine trihydrate] | – | – | – | – | – | – | – | – | – | – | – | – | – | – | – | – | – | – | stable, and no decomposition was observed |
